System: PHA-P-activated PBMCs
Experiment: Toxicity test, viability of PHA-P-activated PBMCs
Type: cell-based, human
Settings: at the doses tested
Experimental: The PBMCs are separated from the other represented elements of the blood by ficoll (MSL 2000, Eurobio) gradient centrifiguation: 30 ml of blood, from a healthy donor, diluted by a third are deposited onto a 20 ml ficoll cushion. After centrifugation for 20 min at 850 g, the ring of PBMCs is removed and then washed twice with RPMI 1640, after centrifugation at 750 g for 10 min and at 400 g for 5 min. The PBMCs are then activated for 48 h with 1 μg/ml of phytohaemagglutinin-P (PHA-P; Difco Laboratories). The PBMCs are cultured at +37° C., in an atmosphere saturated with humidity, under 5% CO2. At the end of the 48 hours of mitogenic activation, they are cultured in medium B. Throughout the culturing, the culture supernatants are sampled, and the culture media are renewed every three or four days. At each renewal of the culture media, the cell viability is evaluated by microscopic observation.
In all the experiments, the effects of the new molecules were compared to those of AZT. […] CD4 mimetic toxicity tests were also carried out on the same cells.

Cc1cn([C@H]2C[C@H](N=[N+]=[N-])[C@@H](CO)O2)c(=O)[nH]c1=O [AZT]
viability of the PHA-P-activated PBMCs (in words): none of the compounds, AZT, SAH-CD4 or anti-CD4 mimetics, decreased the viability

Source: patent US7374875B2, “Peptides having affinity for the gp120 viral protein and use thereof” (priority 2001, dated 2008)
